# Reference: patent US11510931B2, “Compositions and methods for treating ophthalmic conditions” (MEDICON PHARMACEUTICALS, INC., priority 2016, dated 2022)
# Read-outs that look alike come from different tables or passages of the source.
# Test: Ocular biodistribution of PS after topical eye drops in New Zealand white rabbits (HPLC)
# Format: in vivo, rabbit
# Conditions: New Zealand white, rabbit, topical, topical
# Description: Results: The above PS formulation was administered topically as eye drops to the eyes of New Zealand white rabbits. The levels of PS in ocular tissues 1 h and 3 h later were determined by HPLC. The Table below summarizes the findings:
# Results: The above PS formulation was administered topically as eye drops to the eyes of New Zealand white rabbits. The levels of PS in ocular tissues at 2 h later were determined by HPLC. The table below summarizes the findings.
# Results: PS in this formulation was administered topically to the eyes of New Zealand white rabbits and its biodistribution was determined as above. The Table below summarizes the findings.
# Results: PS in this formulation was administered topically as eye drops to the eyes of New Zealand white rabbits. The biodistribution of PS in ocular tissues at 3 h and 6 h was determined by HPLC. The Table below summarizes the findings.
# Biodistribution of PS after topical administration: PS formulated in nanoparticles as above was administered topically as eye drops to New Zealand white rabbits. The biodistribution of PS in ocular tissues at the indicated time points post administration was determined by HPLC. The Table below summarizes the findings.
# Biodistribution of PS after topical administration: PS in the formulations was administered topically as eye drops to the eyes of New Zealand white rabbits. The levels of PS in ocular tissues at 0.5 h, 1 h and 3 h were determined by HPLC. The Table below summarizes the findings.
# To assess the contribution of the foregoing formulations to the PK/biodistribution of PS in the ocular tissues, a solution of PS in pure propylene glycol (PG) was studied. PG is well tolerated by the eye. A 3.5% PS solution (in PG) as eye drops was administered topically to the eyes of New Zealand white rabbits and its 1-hour biodistribution was determined by HPLC. The Table summarizes the findings.
# [1] = aqueous humor, 3 % PS, sodium alginate/Tween 80 in-situ gel, 3% PS, read-out: PS in Aqueous humor
# [2] = aqueous humor, 5.4 % PS, Poloxamer 407 in-situ gel, 5.4% PS, read-out: PS in Aqueous humor
# [3] = aqueous humor, 0.4% gellan gum in-situ gel, 2.4-3% PS, read-out: PS in Aqueous humor
# [4] = ciliary body, 5.4 % PS, Poloxamer 407 in-situ gel, 5.4% PS, read-out: PS in Ciliary body
# [5] = conjunctiva, 5.4 % PS, Poloxamer 407 in-situ gel, 5.4% PS, read-out: PS in Conjunctiva
# [6] = conjunctiva, topical eye drops, mPEG-PLA nanoparticles, read-out: PS in Conjunctiva
# [7] = cornea, topical eye drops, mPEG-PLA nanoparticles, read-out: PS in Cornea
# [8] = iris, 5.4 % PS, Poloxamer 407 in-situ gel, 5.4% PS, read-out: PS in Iris
# [9] = iris, topical eye drops, mPEG-PLA nanoparticles, read-out: PS in Iris
# [10] = lacrimal gland, topical eye drops, mPEG-PLA nanoparticles, read-out: PS in Lacrimal gland
# [11] = lens, 5.4 % PS, Poloxamer 407 in-situ gel, 5.4% PS, read-out: PS in Lens
# [12] = retina, 3 % PS, sodium alginate/Tween 80 in-situ gel, 3% PS, read-out: PS in Retina
# [13] = retina, 5.4 % PS, Poloxamer 407 in-situ gel, 5.4% PS, read-out: PS in Retina
# [14] = sclera, 5.4 % PS, Poloxamer 407 in-situ gel, 5.4% PS, read-out: PS in Sclera
# [15] = sclera, topical eye drops, mPEG-PLA nanoparticles, read-out: PS in Sclera
# [16] = vitreous, 5.4 % PS, Poloxamer 407 in-situ gel, 5.4% PS, read-out: PS in Vitreous
smiles,measurement,setting,value
"CCOP(=O)(OCC)OCCCCOC(=O)CC1=C(C)/C(=C/c2ccc([S+](C)[O-])cc2)c2ccc(F)cc21 (stereo not drawn) [PS, phosphosulindac]",concentration at 5 h,[1],0 nM
same,concentration at 8 h,[1],0 nM
same,concentration at 1 h,"aqueous humor, 3.5 % PS solution (eye drops), topical eye drops, 3.5% PS solution in propylene glycol, read-out: PS in Aqueous humor",0.7 µM
same,concentration at 3 h,[2],0.3 µM
same,concentration at 6 h,[2],0.3 µM
same,concentration at 3 h,[3],0 µM
same,concentration at 5 h,[3],0 nM
same,concentration at 8 h,[3],0 nM
same,concentration at 1 h,"choroid, 3.5 % PS solution (eye drops), topical eye drops, 3.5% PS solution in propylene glycol, read-out: PS in Choroid",0 µM
same,concentration at 6 h,"choroid, 5.4 % PS, Poloxamer 407 in-situ gel, 5.4% PS, read-out: PS in Choroid",0 µM
same,concentration at 2 h,"choroid, 0.5% gellan gum in-situ gel, 2.4~3% PS, read-out: PS in Choroid",0 µM
same,concentration at 3 h,[4],0 µM
same,concentration at 6 h,[4],0 µM
same,concentration at 2 h,"ciliary body, 0.5% gellan gum in-situ gel, 2.4~3% PS, read-out: PS in Ciliary body",0 µM
same,concentration at 1 h,"conjunctiva, 3.5 % PS solution (eye drops), topical eye drops, 3.5% PS solution in propylene glycol, read-out: PS in Conjunctiva",3.3 µM
same,concentration at 3 h,[5],5.6 µM
same,concentration at 6 h,[5],10.7 µM
same,concentration at 0.5 h,[6],121 µM
same,concentration at 1 h,[6],80.4 µM
same,concentration at 2 h,[6],16.9 µM
same,concentration at 8 h,"cornea, 3 % PS, sodium alginate/Tween 80 in-situ gel, 3% PS, read-out: PS in Cornea",0 nM
same,concentration at 1 h,"cornea, 3.5 % PS solution (eye drops), topical eye drops, 3.5% PS solution in propylene glycol, read-out: PS in Cornea",38.8 µM
same,concentration at 6 h,"cornea, 5.4 % PS, Poloxamer 407 in-situ gel, 5.4% PS, read-out: PS in Cornea",13.6 µM
same,concentration at 0.5 h,[7],89.8 µM
same,concentration at 1 h,[7],63.9 µM
same,concentration at 2 h,[7],43.5 µM
same,concentration at 3 h,[8],0 µM
same,concentration at 6 h,[8],0 µM
same,concentration at 0.5 h,[9],2.8 µM
same,concentration at 1 h,[9],6.4 µM
same,concentration at 2 h,[9],1.3 µM
same,concentration at 2 h,"iris, 0.5% gellan gum in-situ gel, 2.4~3% PS, read-out: PS in Iris",0 µM
same,concentration at 1 h,"lacrimal gland, 3.5 % PS solution (eye drops), topical eye drops, 3.5% PS solution in propylene glycol, read-out: PS in Lacrimal gland",0.1 µM
same,concentration at 0.5 h,[10],7.5 µM
same,concentration at 1 h,[10],3.5 µM
same,concentration at 2 h,[10],0.6 µM
same,concentration at 2 h,"lacrimal gland, 0.5% gellan gum in-situ gel, 2.4~3% PS, read-out: PS in Lacrimal Gland",0 µM
same,concentration at 3 h,[11],0 µM
same,concentration at 6 h,[11],0 µM
same,concentration at 2 h,"lens, 0.5% gellan gum in-situ gel, 2.4~3% PS, read-out: PS in Lens",0 µM
same,concentration at 1 h,[12],0 µM
same,concentration at 3 h,[12],0 µM
same,concentration at 5 h,[12],0 nM
same,concentration at 8 h,[12],0 nM
same,concentration at 1 h,"retina, 3.5 % PS solution (eye drops), topical eye drops, 3.5% PS solution in propylene glycol, read-out: PS in Retina",0 µM
same,concentration at 3 h,[13],0 µM
same,concentration at 6 h,[13],0 µM
same,concentration at 2 h,"retina, 0.5% gellan gum in-situ gel, 2.4~3% PS, read-out: PS in Retina",0 µM
same,concentration at 1 h,"sclera, 3.5 % PS solution (eye drops), topical eye drops, 3.5% PS solution in propylene glycol, read-out: PS in Sclera",0 µM
same,concentration at 3 h,[14],0 µM
same,concentration at 6 h,[14],0 µM
same,concentration at 0.5 h,[15],32.1 µM
same,concentration at 1 h,[15],17.1 µM
same,concentration at 2 h,[15],4.7 µM
same,concentration at 2 h,"sclera, 0.5% gellan gum in-situ gel, 2.4~3% PS, read-out: PS in Sclera",0 µM
same,concentration at 1 h,"vitreous body, 3.5 % PS solution (eye drops), topical eye drops, 3.5% PS solution in propylene glycol, read-out: PS in Vitreous body",0 µM
same,concentration at 3 h,"vitreous body, 3.5 % PS, topical eye drops, 3.5% PS/16% Vitamin E TPGS/mannitol/boric acid, read-out: PS in Vitreous body",0 µM
same,concentration at 3 h,[16],0 µM
same,concentration at 6 h,[16],0 µM
same,concentration at 2 h,"vitreous, 0.5% gellan gum in-situ gel, 2.4~3% PS, read-out: PS in Vitreous",0 µM
